Reference: patent US20020035061A1, “COMPOSITIONS AND METHODS FOR TREATING INFECTIONS USING CATIONIC PEPTIDES ALONE OR IN COMBINATION WITH ANTIBIOTICS” (priority 1996, published 2002)

System: bacterial isolates
Experiment: microbe, parasite or virus in culture
Type: cell-based
Conditions: for MBI 26 + Teicoplanin: in combination with Teicoplanin

KWKSFIKKLTSAAKKVVTTAKPLISS [MBI 26]
Peptide MIC Alone (1. Amikacin, A. baumannii ABI001): 8 µg/mL | Peptide MIC Alone (1. Amikacin, A. baumannii ABI003): 8 µg/mL | Peptide MIC Alone (1. Amikacin, S. maltophilia SMA021): 32 µg/mL | Peptide MIC Alone (1. Amikacin, S. maltophilia SMA037): >128 µg/mL | Peptide MIC Alone (2. Ceftriaxone, A. baumannii ABI002): 8 µg/mL | Peptide MIC Alone (2. Ceftriaxone, A. baumannii ABI005): 2 µg/mL | Peptide MIC Alone (2. Ceftriaxone, B. cepacia BC003): >128 µg/mL | Peptide MIC Alone (2. Ceftriaxone, E. cloacae ECL014): 8 µg/mL | Peptide MIC Alone (2. Ceftriaxone, E. cloacae ECL015): 32 µg/mL | Peptide MIC Alone (2. Ceftriaxone, K. pneumoniae KP003): 16 µg/mL | Peptide MIC Alone (2. Ceftriaxone, P. aeruginosa PA008): 128 µg/mL | Peptide MIC Alone (2. Ceftriaxone, P. aeruginosa PA024): 128 µg/mL | Peptide MIC Alone (2. Ceftriaxone, S. aureus SA025 MRSA): 1 µg/mL | Peptide MIC Alone (2. Ceftriaxone, S. epidermidis SE007): 32 µg/mL | Peptide MIC Alone (2. Ceftriaxone, S. epidermidis SE012): 64 µg/mL | Peptide MIC Alone (2. Ceftriaxone, S. maltophilia SMA019): 4 µg/mL | Peptide MIC Alone (2. Ceftriaxone, S. maltophilia SMA020): 4 µg/mL | Peptide MIC Alone (3. Ciprofloxacin, A. calcoaceticus 1): >64 µg/mL | Peptide MIC Alone (3. Ciprofloxacin, A. calcoaceticus 6): >32 µg/mL | Peptide MIC Alone (3. Ciprofloxacin, E. cloacae 13): >128 µg/mL | Peptide MIC Alone (3. Ciprofloxacin, E. cloacae 15): >32 µg/mL | Peptide MIC Alone (3. Ciprofloxacin, E. cloacae 16): >32 µg/mL | Peptide MIC Alone (3. Ciprofloxacin, P. aeruginosa 23): >32 µg/mL | Peptide MIC Alone (3. Ciprofloxacin, P. aeruginosa 24): >32 µg/mL | Peptide MIC Alone (3. Ciprofloxacin, P. aeruginosa PA41): 128 µg/mL | Peptide MIC Alone (3. Ciprofloxacin, P. aeruginosa PA77): 128 µg/mL | Peptide MIC Alone (3. Ciprofloxacin, S. aureus SA11): 128 µg/mL | Peptide MIC Alone (3. Ciprofloxacin, S. maltophilia 34): >32 µg/mL | Peptide MIC Alone (3. Ciprofloxacin, S. maltophilia 35): >32 µg/mL | Peptide MIC Alone (4. Gentamicin, A. baumannii ABI001): 8 µg/mL | Peptide MIC Alone (4. Gentamicin, A. baumannii ABI002): 8 µg/mL | Peptide MIC Alone (4. Gentamicin, P. aeruginosa PA041): 64 µg/mL | Peptide MIC Alone (4. Gentamicin, S. maltophilia SMA016): >128 µg/mL | Peptide MIC Alone (4. Gentamicin, S. maltophilia SMA017): 16 µg/mL | Amikacin MIC + Peptide (A. baumannii ABI001): 8 µg/mL | Gentamicin MIC + Peptide (A. baumannii ABI001): 16 µg/mL | Peptide MIC + Amikacin (A. baumannii ABI001): 2 µg/mL | Peptide MIC + Gentamicin (A. baumannii ABI001): 2 µg/mL | Ceftriaxone MIC + Peptide (A. baumannii ABI002): 16 µg/mL | Gentamicin MIC + Peptide (A. baumannii ABI002): 0.5 µg/mL | Peptide MIC + Ceftriaxone (A. baumannii ABI002): 2 µg/mL | Peptide MIC + Gentamicin (A. baumannii ABI002): 4 µg/mL | Amikacin MIC + Peptide (A. baumannii ABI003): 2 µg/mL | Peptide MIC + Amikacin (A. baumannii ABI003): 2 µg/mL | Ceftriaxone MIC + Peptide (A. baumannii ABI005): 8 µg/mL | Peptide MIC + Ceftriaxone (A. baumannii ABI005): 0.125 µg/mL | Ciprofloxacin MIC + Peptide (A. calcoaceticus 1): 0.25 µg/mL | Peptide MIC + Ciprofloxacin (A. calcoaceticus 1): 1 µg/mL | Ciprofloxacin MIC + Peptide (A. calcoaceticus 6): 0.25 µg/mL | Peptide MIC + Ciprofloxacin (A. calcoaceticus 6): 16 µg/mL | Peptide MIC + Piperacillin (A. calcoaceticus 7): 8 µg/mL | Piperacillin MIC + Peptide (A. calcoaceticus 7): 4 µg/mL | Peptide MIC Alone (A. calcoaceticus 7, Piperacillin section): >32 µg/mL | Peptide MIC + Piperacillin (A. calcoaceticus 8): 8 µg/mL | Piperacillin MIC + Peptide (A. calcoaceticus 8): 4 µg/mL | Peptide MIC Alone (A. calcoaceticus 8, Piperacillin section): >32 µg/mL | Ceftriaxone MIC + Peptide (B. cepacia BC003): 8 µg/mL | Peptide MIC + Ceftriaxone (B. cepacia BC003): 0.125 µg/mL | Ciprofloxacin MIC + Peptide (E. cloacae 13): 0.25 µg/mL | Peptide MIC + Ciprofloxacin (E. cloacae 13): 4 µg/mL | Peptide MIC + Piperacillin (E. cloacae 13): 8 µg/mL | Piperacillin MIC + Peptide (E. cloacae 13): 4 µg/mL | Peptide MIC Alone (E. cloacae 13, Piperacillin section): >32 µg/mL | Ciprofloxacin MIC + Peptide (E. cloacae 15): 0.25 µg/mL | Peptide MIC + Ciprofloxacin (E. cloacae 15): 8 µg/mL | Ciprofloxacin MIC + Peptide (E. cloacae 16): 0.25 µg/mL | Peptide MIC + Ciprofloxacin (E. cloacae 16): 16 µg/mL | Ceftriaxone MIC + Peptide (E. cloacae ECL014): 32 µg/mL | Peptide MIC + Ceftriaxone (E. cloacae ECL014): 2 µg/mL | Ceftriaxone MIC + Peptide (E. cloacae ECL015): 4 µg/mL | Peptide MIC + Ceftriaxone (E. cloacae ECL015): 4 µg/mL | Mupirocin MIC + Peptide (E. coli ECO5): 30 µg/mL | Peptide MIC + Mupirocin (E. coli ECO5): 1 µg/mL | Peptide MIC Alone (E. coli ECO5, Mupirocin section): 8 µg/mL | Mupirocin MIC + Peptide (E. coli SBECO2): 30 µg/mL | Peptide MIC + Mupirocin (E. coli SBECO2): 1 µg/mL | Peptide MIC Alone (E. coli SBECO2, Mupirocin section): 8 µg/mL | MBI 26 Alone (E. faecalis 97040 VanB): 64 µg/mL | MBI 26 + Teicoplanin (E. faecalis 97040 VanB): 8 µg/mL | MBI 26 Alone (E. faecalis 97041 VanB): 64 µg/mL | MBI 26 + Teicoplanin (E. faecalis 97041 VanB): 8 µg/mL | MBI 26 Alone (E. faecalis 97042 VanB): 64 µg/mL | MBI 26 + Teicoplanin (E. faecalis 97042 VanB): 8 µg/mL | MBI 26 Alone (E. faecalis 97043 VanB): 64 µg/mL | MBI 26 + Teicoplanin (E. faecalis 97043 VanB): 8 µg/mL | Peptide MIC + Vancomycin (E. faecalis EFS005): 16 µg/mL | Peptide MIC Alone (E. faecalis EFS005): >128 µg/mL | Vancomycin MIC + Peptide (E. faecalis EFS005): 4 µg/mL | Peptide MIC + Vancomycin (E. faecalis EFS012): 1 µg/mL | Peptide MIC Alone (E. faecalis EFS012): 16 µg/mL | Vancomycin MIC + Peptide (E. faecalis EFS012): 2 µg/mL | Peptide MIC + Vancomycin (E. faecalis EFS013): 1 µg/mL | Peptide MIC Alone (E. faecalis EFS013): 16 µg/mL | Vancomycin MIC + Peptide (E. faecalis EFS013): 2 µg/mL | MBI 26 Alone (E. faecium 97001 VanB): 64 µg/mL | MBI 26 + Teicoplanin (E. faecium 97001 VanB): 4 µg/mL | MBI 26 Alone (E. faecium 97002 VanB): 64 µg/mL | MBI 26 + Teicoplanin (E. faecium 97002 VanB): 1 µg/mL | MBI 26 Alone (E. faecium 97003 VanB): 64 µg/mL | MBI 26 + Teicoplanin (E. faecium 97003 VanB): 1 µg/mL | MBI 26 Alone (E. faecium 97005 VanB): 64 µg/mL | MBI 26 + Teicoplanin (E. faecium 97005 VanB): 2 µg/mL | MBI 26 Alone (E. faecium 97006 VanB): 64 µg/mL | MBI 26 + Teicoplanin (E. faecium 97006 VanB): 4 µg/mL | MBI 26 Alone (E. faecium 97007 VanB): 64 µg/mL | MBI 26 + Teicoplanin (E. faecium 97007 VanB): 1 µg/mL | MBI 26 Alone (E. faecium 97008 VanB): 64 µg/mL | MBI 26 + Teicoplanin (E. faecium 97008 VanB): 4 µg/mL | MBI 26 Alone (E. faecium 97009 VanB): 32 µg/mL | MBI 26 + Teicoplanin (E. faecium 97009 VanB): 1 µg/mL | MBI 26 Alone (E. faecium 97010 VanB): 64 µg/mL | MBI 26 + Teicoplanin (E. faecium 97010 VanB): 4 µg/mL | MBI 26 Alone (E. faecium 97011 VanB): 64 µg/mL | MBI 26 + Teicoplanin (E. faecium 97011 VanB): 4 µg/mL | MBI 26 Alone (E. faecium 97012 VanB): 64 µg/mL | MBI 26 + Teicoplanin (E. faecium 97012 VanB): 4 µg/mL | MBI 26 Alone (E. faecium 97013 VanB): 64 µg/mL | MBI 26 + Teicoplanin (E. faecium 97013 VanB): 8 µg/mL | MBI 26 Alone (E. faecium 97014 VanB): 64 µg/mL | MBI 26 + Teicoplanin (E. faecium 97014 VanB): 4 µg/mL | MBI 26 Alone (E. faecium 97015 VanB): 64 µg/mL | MBI 26 + Teicoplanin (E. faecium 97015 VanB): 4 µg/mL | MBI 26 Alone (E. faecium 97016 VanB): 64 µg/mL | MBI 26 + Teicoplanin (E. faecium 97016 VanB): 4 µg/mL | Peptide MIC + Vancomycin (E. faecium EFM010): 8 µg/mL | Peptide MIC Alone (E. faecium EFM010): 32 µg/mL | Vancomycin MIC + Peptide (E. faecium EFM010): 2 µg/mL | Peptide MIC + Vancomycin (E. faecium EFM011): 8 µg/mL | Peptide MIC Alone (E. faecium EFM011): 32 µg/mL | Vancomycin MIC + Peptide (E. faecium EFM011): 2 µg/mL | Peptide MIC + Vancomycin (E. faecium EFM012): 16 µg/mL | Peptide MIC Alone (E. faecium EFM012): 64 µg/mL | Vancomycin MIC + Peptide (E. faecium EFM012): 2 µg/mL | Peptide MIC + Vancomycin (E. faecium EFM014): 8 µg/mL | Peptide MIC Alone (E. faecium EFM014): 32 µg/mL | Vancomycin MIC + Peptide (E. faecium EFM014): 4 µg/mL | Peptide MIC + Vancomycin (E. faecium EFM016): 4 µg/mL | Peptide MIC Alone (E. faecium EFM016): 8 µg/mL | Vancomycin MIC + Peptide (E. faecium EFM016): 1 µg/mL | Peptide MIC + Piperacillin (H. influenzae 1): 8 µg/mL | Piperacillin MIC + Peptide (H. influenzae 1): 32 µg/mL | Peptide MIC Alone (H. influenzae 1, Piperacillin section): >128 µg/mL | Peptide MIC + Piperacillin (H. influenzae 2): 2 µg/mL | Piperacillin MIC + Peptide (H. influenzae 2): 64 µg/mL | Peptide MIC Alone (H. influenzae 2, Piperacillin section): >128 µg/mL | Ceftriaxone MIC + Peptide (K. pneumoniae KP003): 4 µg/mL | Peptide MIC + Ceftriaxone (K. pneumoniae KP003): 1 µg/mL | Peptide MIC + Piperacillin (P. aeruginosa 7): 32 µg/mL | Piperacillin MIC + Peptide (P. aeruginosa 7): 32 µg/mL | Peptide MIC Alone (P. aeruginosa 7, Piperacillin section): >128 µg/mL | Ciprofloxacin MIC + Peptide (P. aeruginosa 23): 0.5 µg/mL | Peptide MIC + Ciprofloxacin (P. aeruginosa 23): 2 µg/mL | Peptide MIC + Piperacillin (P. aeruginosa 23): 32 µg/mL | Piperacillin MIC + Peptide (P. aeruginosa 23): 4 µg/mL | Peptide MIC Alone (P. aeruginosa 23, Piperacillin section): >64 µg/mL | Ciprofloxacin MIC + Peptide (P. aeruginosa 24): 0.5 µg/mL | Peptide MIC + Ciprofloxacin (P. aeruginosa 24): 2 µg/mL | Peptide MIC + Piperacillin (P. aeruginosa 28): 32 µg/mL | Piperacillin MIC + Peptide (P. aeruginosa 28): 16 µg/mL | Peptide MIC Alone (P. aeruginosa 28, Piperacillin section): >128 µg/mL | Peptide MIC + Piperacillin (P. aeruginosa 41): 4 µg/mL | Piperacillin MIC + Peptide (P. aeruginosa 41): 32 µg/mL | Peptide MIC Alone (P. aeruginosa 41, Piperacillin section): 128 µg/mL | Mupirocin MIC + Peptide (P. aeruginosa PA2): 10 µg/mL | Peptide MIC + Mupirocin (P. aeruginosa PA2): 64 µg/mL | Peptide MIC Alone (P. aeruginosa PA2, Mupirocin section): 128 µg/mL | Mupirocin MIC + Peptide (P. aeruginosa PA4): 100 µg/mL | Peptide MIC + Mupirocin (P. aeruginosa PA4): 32 µg/mL
